Results as given in patent US10709758B2 (priority 2015, dated 2020).

Target: TcdB1 (Clostridioides difficile, UniProt P18177)
Sequence (P18177 2-2366 limits assumed): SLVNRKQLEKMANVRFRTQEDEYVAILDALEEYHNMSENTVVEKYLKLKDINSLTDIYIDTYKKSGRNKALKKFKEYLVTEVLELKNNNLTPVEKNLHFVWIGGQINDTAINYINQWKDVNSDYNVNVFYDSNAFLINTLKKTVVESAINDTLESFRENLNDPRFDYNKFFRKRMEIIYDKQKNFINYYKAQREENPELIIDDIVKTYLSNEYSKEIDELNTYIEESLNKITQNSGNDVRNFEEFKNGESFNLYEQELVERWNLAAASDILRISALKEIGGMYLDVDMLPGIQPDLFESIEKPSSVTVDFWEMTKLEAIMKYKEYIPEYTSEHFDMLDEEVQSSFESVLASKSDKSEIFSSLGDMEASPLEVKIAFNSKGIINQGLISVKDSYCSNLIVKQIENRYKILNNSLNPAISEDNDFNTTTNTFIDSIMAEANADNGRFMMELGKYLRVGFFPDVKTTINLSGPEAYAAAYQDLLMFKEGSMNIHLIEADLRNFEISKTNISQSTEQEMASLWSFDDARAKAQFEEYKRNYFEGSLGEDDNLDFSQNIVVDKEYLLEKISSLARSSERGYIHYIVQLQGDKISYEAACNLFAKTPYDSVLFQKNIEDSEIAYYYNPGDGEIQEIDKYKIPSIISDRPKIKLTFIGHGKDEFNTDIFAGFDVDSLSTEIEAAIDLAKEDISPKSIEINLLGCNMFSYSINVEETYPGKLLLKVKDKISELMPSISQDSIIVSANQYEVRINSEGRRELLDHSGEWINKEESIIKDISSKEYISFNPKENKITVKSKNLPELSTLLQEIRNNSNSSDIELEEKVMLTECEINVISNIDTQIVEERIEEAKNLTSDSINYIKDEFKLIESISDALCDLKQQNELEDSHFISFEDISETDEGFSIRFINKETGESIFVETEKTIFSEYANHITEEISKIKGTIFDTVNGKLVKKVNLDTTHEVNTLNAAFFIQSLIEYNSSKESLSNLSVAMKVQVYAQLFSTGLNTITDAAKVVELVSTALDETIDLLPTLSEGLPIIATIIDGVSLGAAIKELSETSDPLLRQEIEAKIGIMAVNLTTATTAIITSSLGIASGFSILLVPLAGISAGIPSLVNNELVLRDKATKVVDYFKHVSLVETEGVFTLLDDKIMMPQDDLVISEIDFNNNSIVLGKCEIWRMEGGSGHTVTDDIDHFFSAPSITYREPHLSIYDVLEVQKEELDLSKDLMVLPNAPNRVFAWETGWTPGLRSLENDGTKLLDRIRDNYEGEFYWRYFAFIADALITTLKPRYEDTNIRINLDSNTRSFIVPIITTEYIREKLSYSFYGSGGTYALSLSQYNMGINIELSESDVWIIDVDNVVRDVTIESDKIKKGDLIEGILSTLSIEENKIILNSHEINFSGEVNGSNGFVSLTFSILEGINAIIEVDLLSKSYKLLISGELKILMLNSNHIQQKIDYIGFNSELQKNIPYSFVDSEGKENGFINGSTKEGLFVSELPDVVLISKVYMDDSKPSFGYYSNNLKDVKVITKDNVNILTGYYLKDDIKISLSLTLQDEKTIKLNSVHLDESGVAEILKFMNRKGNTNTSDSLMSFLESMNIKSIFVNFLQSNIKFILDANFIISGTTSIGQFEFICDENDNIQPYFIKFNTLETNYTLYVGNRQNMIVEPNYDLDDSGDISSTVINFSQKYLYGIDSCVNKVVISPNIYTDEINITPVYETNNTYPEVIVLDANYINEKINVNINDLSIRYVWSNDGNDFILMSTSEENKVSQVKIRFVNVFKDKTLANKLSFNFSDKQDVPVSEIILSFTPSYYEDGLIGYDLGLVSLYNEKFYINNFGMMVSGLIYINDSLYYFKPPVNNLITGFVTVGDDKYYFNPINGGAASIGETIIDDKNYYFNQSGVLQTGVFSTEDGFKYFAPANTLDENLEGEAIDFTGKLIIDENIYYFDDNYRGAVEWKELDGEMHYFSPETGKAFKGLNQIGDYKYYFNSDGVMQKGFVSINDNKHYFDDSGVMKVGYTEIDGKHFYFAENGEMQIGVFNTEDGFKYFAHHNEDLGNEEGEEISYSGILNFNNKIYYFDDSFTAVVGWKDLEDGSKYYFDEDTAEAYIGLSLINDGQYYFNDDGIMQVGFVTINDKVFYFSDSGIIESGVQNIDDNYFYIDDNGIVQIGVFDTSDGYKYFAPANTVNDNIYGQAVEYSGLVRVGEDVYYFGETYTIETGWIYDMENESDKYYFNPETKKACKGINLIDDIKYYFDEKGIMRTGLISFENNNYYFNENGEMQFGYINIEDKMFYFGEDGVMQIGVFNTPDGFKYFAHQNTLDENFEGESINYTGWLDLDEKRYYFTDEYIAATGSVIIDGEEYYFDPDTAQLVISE

CC[C@H](C)[C@H](NC(=O)[C@H](CCCCN)NC(=O)[C@H](CC(=O)O)NC(=O)[C@H](CO)NC(=O)[C@@H](NC(=O)[C@@H](NC(=O)[C@H](CC(N)=O)NC(=O)CNC(=O)[C@H](CCCCN)NC(=O)[C@H](Cc1ccccc1)NC(=O)[C@@H](NC(=O)[C@@H](N)CC(N)=O)C(C)C)[C@@H](C)O)[C@@H](C)CC)C(=O)N[C@@H](CO)C(=O)N[C@@H](Cc1ccccc1)C(=O)N[C@@H](CC(N)=O)C(=O)N[C@@H](Cc1ccccc1)C(=O)N[C@@H](CO)C(=O)N[C@@H](CC(=O)O)C(=O)N[C@@H](CCCCN)C(=O)O [PepB2]
increase of the 50% toxic concentration (TC50) of TcdB1: 500 fold
protection from cytotoxicity of TcdB1 over a range of toxin concentrations: protects CHO-K1 cells
